A short description of data set [1]: CuAAC macrocyclisation to 1,4-triazole (CuI 2 eq, DIPEA 3 eq), Boc retained. The following applies: THF (reflux), 1.2 mM, 66.0 °C, 18.0 h.
A short description of data set [2]: CuAAC macrocyclisation of azide/terminal alkyne linear peptidomimetics to 1,4-triazole (CuI 2 eq, DIPEA 3 eq, Ar-degassed), then Boc removal (TMSCl/MeOH GP4; HCl/dioxane GP5 for A13w, J13w). Conditions: THF (reflux), 1.2 mM, 66.0 °C, 18.0 h, 2 steps.

Take `COC(=O)[C@@H]1CCCCn2cc(nn2)CCC(=O)NCCCC[C@H](NC(=O)OC(C)(C)C)C(=O)N[C@H](C(=O)OC)CCC(=O)N1` [Boc-Lys(4-pentynoyl)-Glu(gamma-Lys(N3)-OMe)-OMe]: the ring closure, isolated yield in data set [1] (from C#CCCC(=O)NCCCC[C@H](NC(=O)OC(C)(C)C)C(=O)N[C@@H](CCC(=O)N[C@@H](CCCCN=[N+]=[N-])C(=O)OC)C(=O)OC, 24-membered ring) stood at 69%. The molecule `COC(=O)[C@@H]1CCCCn2cc(nn2)CCCC(=O)NC[C@H](NC(=O)OC(C)(C)C)C(=O)N[C@H](C(=O)OC)CCC(=O)N1` [Boc-Dap(5-hexynoyl)-Glu(gamma-Lys(N3)-OMe)-OMe] returned a ring closure, isolated yield in data set [1] (from C#CCCCC(=O)NC[C@H](NC(=O)OC(C)(C)C)C(=O)N[C@@H](CCC(=O)N[C@@H](CCCCN=[N+]=[N-])C(=O)OC)C(=O)OC, 22-membered ring) of 69%. As to `COC(=O)[C@@H]1CCCCn2cc(nn2)CCCC(=O)Nc2ccc(cc2)C[C@H](NC(=O)OC(C)(C)C)C(=O)N[C@H](C(=O)OC)CCC(=O)N1` [Boc-Phe(4-NH-5-hexynoyl)-Glu(gamma-Lys(N3)-OMe)-OMe], in data set [1] (from C#CCCCC(=O)Nc1ccc(C[C@H](NC(=O)OC(C)(C)C)C(=O)N[C@@H](CCC(=O)N[C@@H](CCCCN=[N+]=[N-])C(=O)OC)C(=O)OC)cc1, 26-membered ring), the ring closure, isolated yield came out at 12%.

Consider `COC(=O)[C@@H]1CCCCn2cc(nn2)CNC(=O)NCCC[C@H](NC(=O)OC(C)(C)C)C(=O)N[C@H](C(=O)OC)CCC(=O)N1` [Boc-Orn(CONH-propargyl)-Glu(gamma-Lys(N3)-OMe)-OMe], for which the ring closure, isolated yield in data set [1] (from C#CCNC(=O)NCCC[C@H](NC(=O)OC(C)(C)C)C(=O)N[C@@H](CCC(=O)N[C@@H](CCCCN=[N+]=[N-])C(=O)OC)C(=O)OC, 23-membered ring) is 60%. In the case of `COC(=O)[C@@H]1CCCn2cc(nn2)CCC(=O)NCCCC[C@H](NC(=O)OC(C)(C)C)C(=O)N1` [Boc-Lys(4-pentynoyl)-Orn(N3)-OMe], in data set [2] (from C#CCCC(=O)NCCCC[C@H](NC(=O)OC(C)(C)C)C(=O)N[C@@H](CCCN=[N+]=[N-])C(=O)OC, 18-membered ring), the ring closure, yield over several steps amounted to 99%.

In the case of `COC(=O)[C@@H]1CNC(=O)[C@H](Cc2ccccc2)n2cc(nn2)CCC(=O)NCCCC[C@H](NC(=O)OC(C)(C)C)C(=O)N1` [Boc-Lys(4-pentynoyl)-Dap(N3-Phe)-OMe], the ring closure, yield over several steps in data set [2] (from C#CCCC(=O)NCCCC[C@H](NC(=O)OC(C)(C)C)C(=O)N[C@@H](CNC(=O)[C@H](Cc1ccccc1)N=[N+]=[N-])C(=O)OC, 19-membered ring) is 98%. Molecule `COC(=O)[C@@H]1CCCCn2cc(nn2)CNC(=O)NCCCC[C@H](NC(=O)OC(C)(C)C)C(=O)N[C@H](C(=O)OC)CCC(=O)N1` [Boc-Lys(CONH-propargyl)-Glu(gamma-Lys(N3)-OMe)-OMe] registered a ring closure, isolated yield in data set [1] (from C#CCNC(=O)NCCCC[C@H](NC(=O)OC(C)(C)C)C(=O)N[C@@H](CCC(=O)N[C@@H](CCCCN=[N+]=[N-])C(=O)OC)C(=O)OC, 24-membered ring) of 62%. In data set [2] (from C#CCNC(=O)NC[C@H](NC(=O)OC(C)(C)C)C(=O)N[C@@H](CCC(=O)N[C@@H](CCCN=[N+]=[N-])C(=O)OC)C(=O)OC, 20-membered ring), `COC(=O)[C@@H]1CCCn2cc(nn2)CNC(=O)NC[C@H](NC(=O)OC(C)(C)C)C(=O)N[C@H](C(=O)OC)CCC(=O)N1` [Boc-Dap(CONH-propargyl)-Glu(gamma-Orn(N3)-OMe)-OMe] came in with a ring closure, yield over several steps of 78%. Regarding `COC(=O)[C@@H]1CNC(=O)[C@H](Cc2ccccc2)n2cc(nn2)CCCC(=O)NCC[C@H](NC(=O)OC(C)(C)C)C(=O)N1` [Boc-Dab(5-hexynoyl)-Dap(N3-Phe)-OMe], in data set [2] (from C#CCCCC(=O)NCC[C@H](NC(=O)OC(C)(C)C)C(=O)N[C@@H](CNC(=O)[C@H](Cc1ccccc1)N=[N+]=[N-])C(=O)OC, 18-membered ring), the ring closure, yield over several steps is 70%. The molecule `COC(=O)[C@@H]1CCCn2cc(nn2)CNC(=O)NCC[C@H](NC(=O)OC(C)(C)C)C(=O)N1` [Boc-Dab(CONH-propargyl)-Orn(N3)-OMe] yielded a ring closure, yield over several steps in data set [2] (from C#CCNC(=O)NCC[C@H](NC(=O)OC(C)(C)C)C(=O)N[C@@H](CCCN=[N+]=[N-])C(=O)OC, 16-membered ring) of 29%.

In data set [1] (from C#CCNC(=O)NCC[C@H](NC(=O)OC(C)(C)C)C(=O)N[C@@H](CCC(=O)N[C@@H](CCCCN=[N+]=[N-])C(=O)OC)C(=O)OC, 22-membered ring), `COC(=O)[C@@H]1CCCCn2cc(nn2)CNC(=O)NCC[C@H](NC(=O)OC(C)(C)C)C(=O)N[C@H](C(=O)OC)CCC(=O)N1` [Boc-Dab(CONH-propargyl)-Glu(gamma-Lys(N3)-OMe)-OMe] displayed a ring closure, isolated yield of 67%. `COC(=O)[C@@H]1CCCCNC(=O)[C@H](Cc2ccccc2)n2cc(nn2)CCC(=O)NC[C@H](NC(=O)OC(C)(C)C)C(=O)N1` [Boc-Dap(4-pentynoyl)-Lys(N3-Phe)-OMe]: the ring closure, yield over several steps in data set [2] (from C#CCCC(=O)NC[C@H](NC(=O)OC(C)(C)C)C(=O)N[C@@H](CCCCNC(=O)[C@H](Cc1ccccc1)N=[N+]=[N-])C(=O)OC, 19-membered ring) came to 99%.

`COC(=O)[C@@H]1CCCCNC(=O)[C@H](Cc2ccccc2)n2cc(nn2)CCCC(=O)NCCCC[C@H](NC(=O)OC(C)(C)C)C(=O)N1` [Boc-Lys(5-hexynoyl)-Lys(N3-Phe)-OMe] yielded a ring closure, yield over several steps in data set [2] (from C#CCCCC(=O)NCCCC[C@H](NC(=O)OC(C)(C)C)C(=O)N[C@@H](CCCCNC(=O)[C@H](Cc1ccccc1)N=[N+]=[N-])C(=O)OC, 23-membered ring) of 54%. As for `COC(=O)[C@@H]1CCCCn2cc(nn2)CCCC(=O)NCC[C@H](NC(=O)OC(C)(C)C)C(=O)N1` [Boc-Dab(5-hexynoyl)-Lys(N3)-OMe], in data set [2] (from C#CCCCC(=O)NCC[C@H](NC(=O)OC(C)(C)C)C(=O)N[C@@H](CCCCN=[N+]=[N-])C(=O)OC, 18-membered ring), the ring closure, yield over several steps worked out at 99%.

Take `COC(=O)[C@@H]1CCCCNC(=O)[C@H](Cc2ccccc2)n2cc(nn2)CCC(=O)NCC[C@H](NC(=O)OC(C)(C)C)C(=O)N1` [Boc-Dab(4-pentynoyl)-Lys(N3-Phe)-OMe]: the ring closure, yield over several steps in data set [2] (from C#CCCC(=O)NCC[C@H](NC(=O)OC(C)(C)C)C(=O)N[C@@H](CCCCNC(=O)[C@H](Cc1ccccc1)N=[N+]=[N-])C(=O)OC, 20-membered ring) is 91%.

In the case of `COC(=O)[C@@H]1CCCn2cc(nn2)CCC(=O)NC[C@H](NC(=O)OC(C)(C)C)C(=O)N1` [Boc-Dap(4-pentynoyl)-Orn(N3)-OMe], in data set [2] (from C#CCCC(=O)NC[C@H](NC(=O)OC(C)(C)C)C(=O)N[C@@H](CCCN=[N+]=[N-])C(=O)OC, 15-membered ring), the ring closure, yield over several steps came to 53%. Regarding `COC(=O)[C@@H]1CNC(=O)[C@H](Cc2ccccc2)n2cc(nn2)CNC(=O)NCCC[C@H](NC(=O)OC(C)(C)C)C(=O)N1` [Boc-Orn(CONH-propargyl)-Dap(N3-Phe)-OMe], the ring closure, yield over several steps in data set [2] (from C#CCNC(=O)NCCC[C@H](NC(=O)OC(C)(C)C)C(=O)N[C@@H](CNC(=O)[C@H](Cc1ccccc1)N=[N+]=[N-])C(=O)OC, 18-membered ring) amounted to 96%. For the molecule `COC(=O)[C@@H]1CNC(=O)[C@H](Cc2ccccc2)n2cc(nn2)CCC(=O)NCC[C@H](NC(=O)OC(C)(C)C)C(=O)N1` [Boc-Dab(4-pentynoyl)-Dap(N3-Phe)-OMe], the ring closure, yield over several steps in data set [2] (from C#CCCC(=O)NCC[C@H](NC(=O)OC(C)(C)C)C(=O)N[C@@H](CNC(=O)[C@H](Cc1ccccc1)N=[N+]=[N-])C(=O)OC, 17-membered ring) worked out at 81%. For the molecule `COC(=O)[C@@H]1CNC(=O)[C@H](Cc2ccccc2)n2cc(nn2)CCC(=O)NC[C@H](NC(=O)OC(C)(C)C)C(=O)N1` [Boc-Dap(4-pentynoyl)-Dap(N3-Phe)-OMe], the ring closure, yield over several steps in data set [2] (from C#CCCC(=O)NC[C@H](NC(=O)OC(C)(C)C)C(=O)N[C@@H](CNC(=O)[C@H](Cc1ccccc1)N=[N+]=[N-])C(=O)OC, 16-membered ring) is 83%.

In the case of `COC(=O)[C@@H]1CCCCn2cc(nn2)CNC(=O)NCC[C@H](NC(=O)OC(C)(C)C)C(=O)N1` [Boc-Dab(CONH-propargyl)-Lys(N3)-OMe], the ring closure, yield over several steps in data set [2] (from C#CCNC(=O)NCC[C@H](NC(=O)OC(C)(C)C)C(=O)N[C@@H](CCCCN=[N+]=[N-])C(=O)OC, 17-membered ring) worked out at 99%. The molecule `COC(=O)[C@@H]1CCCn2cc(nn2)CCC(=O)NCCC[C@H](NC(=O)OC(C)(C)C)C(=O)N1` [Boc-Orn(4-pentynoyl)-Orn(N3)-OMe] registered a ring closure, yield over several steps in data set [2] (from C#CCCC(=O)NCCC[C@H](NC(=O)OC(C)(C)C)C(=O)N[C@@H](CCCN=[N+]=[N-])C(=O)OC, 17-membered ring) of 85%. With `COC(=O)[C@@H]1CCCCNC(=O)[C@H](Cc2ccccc2)n2cc(nn2)CCCC(=O)Nc2ccc(cc2)C[C@H](NC(=O)OC(C)(C)C)C(=O)N1` [Boc-Phe(4-NH-5-hexynoyl)-Lys(N3-Phe)-OMe], the ring closure, yield over several steps in data set [2] (from C#CCCCC(=O)Nc1ccc(C[C@H](NC(=O)OC(C)(C)C)C(=O)N[C@@H](CCCCNC(=O)[C@H](Cc2ccccc2)N=[N+]=[N-])C(=O)OC)cc1, 24-membered ring) worked out at 11%.

`COC(=O)[C@@H]1CCCCn2cc(nn2)CCC(=O)NC[C@H](NC(=O)OC(C)(C)C)C(=O)N1` [Boc-Dap(4-pentynoyl)-Lys(N3)-OMe] yielded a ring closure, yield over several steps in data set [2] (from C#CCCC(=O)NC[C@H](NC(=O)OC(C)(C)C)C(=O)N[C@@H](CCCCN=[N+]=[N-])C(=O)OC, 16-membered ring) of 59%.

(Values after article PMC4441267.)
